Test results reported in patent US9289445B2, “Compositions and methods for treating or preventing a retrovirus infection” (University of Rochester, priority 2011, dated 2016).

Columns and labels:
[1] = tested on: human primary CD4+ T cells; experiment: Cytotoxicity of rACT, FACS/trypan blue; assay type: cell-based; conditions: concentrations up to 1 mM, 2 days
Protocol: (§1) FIGS. 6A-6E show inhibition of HIV-1 reverse transcription by 3′ deoxyadenosine chain terminator (rACT) in human primary macrophages and its cytotoxicity. FIG. 6A includes a graph showing the cytotoxicity of rACT in human primary CD4^+ T cells, U937 cells, and CHME5 cells. These three types of cells were cultured and treated with different concentrations of rACT (up to 1 mM) for 2 days, and the percentage of live and dead cells were determined by FACS and/or trypan blue staining. The percentage of the live cells in the absence of rACT was used for normalization (100%), and the base line cell death of these cell types in the absence of rACT were less than 5%. FIG. 6B includes FACS results. […] The percentages of GFP positive macrophages and PI positive cells in a representative donor, which were determined by FACS at 7 days post transduction, are shown. […] Genomic DNAs were extracted from the transduced macrophages in FIG. 6B, and were used in a quantitative 2LTR circle PCR assay. Viral production was determined by p24 ELISA with the collected media. […]
(§2) First, the cytotoxicity of rACT in human primary CD4^+ T cells, human primary macrophages, human microglial CHME5, and human premonocytic U937 cell lines was assessed. Cells were incubated with different concentrations of rACT (up to 1 mM) for 2 days, and cell survival was determined. […]

CHME5 cells = experiment: Cytotoxicity of rACT, FACS/trypan blue; assay type: cell-based, human; conditions: concentrations up to 1 mM, 2 days
Protocol: as §1, §2

U937 cells = experiment: Cytotoxicity of rACT, FACS/trypan blue; assay type: cell-based, human; conditions: concentrations up to 1 mM, 2 days
Protocol: as §1, §2

[2] = tested on: HIV-1 vector (D3-GFP) in primary human macrophages; experiment: HIV-GFP vector transduction of primary macrophages (GFP FACS); assay type: cell-based; conditions: rACT 0.1 and 1 mM, 7 days post infection, versus no treatment
Protocol: Human primary macrophages were preincubated with different concentrations of rACT (0, 10, 100 and 100 μM) for 24 hours and then transduced with HIV-GFP vector (equal p24 amounts). The percentages of GFP positive macrophages and PI positive cells in a representative donor, which were determined by FACS at 7 days post transduction, are shown. […] These experiments were performed in triplicate from three different blood donors.
Primary human macrophages were pretreated with ddUTP and transduced with a single round VSV-G pseudotyped HIV-1 vector (D3HIV). […] FIG. 10B is a graph showing the results from flow cytometry analysis of the transduced cells.
Next, rACT was evaluated for its ability to inhibit HIV-1 replication in non-dividing cells. The transduction efficiency of an HIV-1 vector in primary human macrophages in the presence and absence of rACT was measured. Human macrophages, which were prepared from multiple donors, were pre-incubated with various concentrations of rACT, and then transduced with an HIV vector (D3-GFP), which expressed all HIV-1 proteins except Env and Nef (replaced with eGFP). Virus infectivity was determined by FACS analysis for GFP expression at 7 days post infection.
Dideoxy uracil triphosphate (ddUTP) was assessed for its ability to inhibit viral reverse transcription in non-dividing cells. […]

[3] = tested on: HIV-1 2-LTR DNA circles (proviral DNA synthesis) in macrophages; experiment: Quantitative 2LTR circle PCR in transduced macrophages; assay type: cell-based; conditions: rACT 0.1 and 1 mM, macrophages
Protocol: Human macrophages, which were prepared from multiple donors, were pre-incubated with various concentrations of rACT, and then transduced with an HIV vector (D3-GFP), which expressed all HIV-1 proteins except Env and Nef (replaced with eGFP).
(§3) Dideoxy uracil triphosphate (ddUTP) was assessed for its ability to inhibit viral reverse transcription in non-dividing cells. Primary human macrophages and CD4^+ T-cells were isolated from human buffy coats and pretreated with ddUTP. The treated cells were then transduced with a single round of VSV-G pseudotyped HIV-1 vector D3-HIV in the presence of various concentrations of drug.
Equal p24 level of the produced vector was used for infecting human macrophages pre-incubated with different concentrations of rACT (RI Chemicals, CA) for 12 hours. For ddUTP, the produced vector was pre-incubated for at least two hours. One half of the harvested cells were used for determining the percentages of the GFP expressing and/or propidium iodide (PI) stained cells by FACS at 7 days post infection. All cells used to asses transduction efficiency were gated or stained with propidium iodide to assure live cells were measured. The remaining cells were used for the extraction of genomic DNA. Quantitative 2LTR circle PCR assay using real-time PCR was normalized by total genomic DNA (Biorad, Hercules, Calif.).

[4] = tested on: HIV-1 vector (DHIV-GFP) in activated CD4+ T cells; experiment: HIV-GFP vector transduction of activated CD4+ T cells (GFP FACS); assay type: cell-based; conditions: rACT 0.1 and 1 mM, activated CD4+ T cells compared to macrophages
Protocol: Next, rACT was evaluated for its ability to inhibit HIV-1 replication in non-dividing cells. The transduction efficiency of an HIV-1 vector in primary human macrophages in the presence and absence of rACT was measured. Human macrophages, which were prepared from multiple donors, were pre-incubated with various concentrations of rACT, and then transduced with an HIV vector (D3-GFP), which expressed all HIV-1 proteins except Env and Nef (replaced with eGFP). Virus infectivity was determined by FACS analysis for GFP expression at 7 days post infection. […] Finally, the effect of rACT on HIV-1 infection in activated CD4^+ T cells was examined.
as §3
rACT was tested in T cells as follows, human primary activated CD4^+ T cells (2.5×10^5) cells isolated from two donors were pre-treated with 0, 0.1, and 1 mM rACT for 4 hours, and then the cells were transduced with DHIV-GFP. The transduced cells were fixed at 48 hours post transduction, and analyzed by FACS for determining the percent of GFP cells. […]

[5] = tested on: human primary macrophages; experiment: Toxicity of rNCTs in macrophages, propidium iodide-based FACS; assay type: cell-based; conditions: 0.5, 1 and 2 mM, 7 days
Protocol: Human primary macrophages were incubated in the presence or absence of rACT, rCCT, rGCT, or rUCT (0.5, 1 and 2 mM) for 7 days, and the percent of live cells (cell survival rate) were determined by propidium iodide-based FACS. FIG. 12 includes a graph of cell survival rate with each rNCTP.
The continuous HIV-1 culture system in human primary macrophages was also employed to evaluate the toxicity of rNCTs in nondividing cells. Human primary macrophages were incubated in the presence or absence of each rNCT (0.5, 1 and 2 mM) for 7 days, and the percentage of live cells (cell survival rate) were determined by propidium iodide-based FACS.

Nc1ncnc2c1ncn2[C@@H]1O[C@H](CO)C[C@H]1O [rACT, 3′-deoxyadenosine]
cytotoxicity [1]: no significant cytotoxicity | cytotoxicity (CHME5 cells): no significant cytotoxicity | cytotoxicity (U937 cells): no significant cytotoxicity | percent of macrophages expressing GFP [2]: reduced the percent of macrophages expressing GFP | 2-LTR circle copy number [3]: substantially reduced the 2-LTR circle copy number | inhibitory effect on HIV-1 infection (GFP positive cells) [4]: less of an inhibitory effect | cytotoxicity (cell survival rate) [5]: no significant cytotoxicity
